The values that follow come from patent publication US7745481B2, “Methods and compositions for the treatment and prevention of tumors, tumor-related disorders and cachexia” (Daiichi Sankyo Company, Limited, priority 1997, dated 2010).

In assay [1] the test system is mouse malignant melanoma B16-BL6 cells. In words: Inhibitory effect on lung metastasis of mouse malignant melanoma B16-BL6 cells. The format is in vivo. Conditions: for Inhibition of lung metastasis (in words): 1 mg/kg oral, lung metastasis accelerating conditions (LPS); for LMI (%) lung metastasis inhibitory rate: 1 mg/kg per day oral for five days, colonies counted on 10th day, C57BL/6 mice. The procedure:
Groups of mice, each group containing ten C57BL/6 mice (female, age: 8 weeks) were transplanted intravenously into the tail vein with 3×10^4 of mouse malignant melanoma B16-BL6 cells.
The mice were, when necessary, administered intravenously into the tail vein with a bacterial lipopolysaccharide (LPS) in an amount of 3 μg each within one hour before transplantation of the melanoma cells so as to accelerate lung metastasis of the melanoma [M. J. Anasagasti et al., J. Natl. Cancer Research, 89, 645-651 (1997).]
As test compounds, Compound No. 2-118, a compound of formula (IV), a compound of formula (V) and indomethacin were employed, and each was suspended in sterilized distilled water containing 0.5% w/v of carboxymethyl cellulose (CMC), and the suspensions were orally administered at a dose of 1 mg/kg per day for five days starting from the day of the melanoma cell transplantation.
Inhibitory activities on lung metastasis of the melanoma cells were evaluated in terms of the lung metastasis inhibitory rate (LMI %) by counting the number of metastatic colonies in the lung on the 10th day after intravenous transplantation of the mouse malignant melanoma B16-BL6 cells at the tail. LMI(%)=(1−Nt/Nc)×100 • Nt: Numbers of lung metastatic colonies on the 10th day in groups administered with the test compounds; and • Nc: Numbers of lung metastatic colonies on the 10th day in control groups which were not administered with the test compounds.

Assay [2] relates to human colon cancer cell lines. The settings on record: literature (Sheng 1997); COX-2 expressing line HCA-7; cited from earlier work.
Assay [3] deals with experimental colonic polyposis. The settings on record: literature (Oshima 1996; Reddy 1996); cited from earlier work.
Assay [4] deals with Human colon cancer KM12-HX cells. In words: Antitumor effect against human colon cancer KM12-HX cells (orthotopic transplant in nude mice). The format is in vivo, mouse. Conditions: 9 doses (days 3-7 and 10-13), tumor weight on day 14, Balb/c nude mice. From the text:
Human colon cancer KM12-HX cells were orthotopically transplanted into the cecum of nude mice according to the method of Fu et al. [X. Fu et al., Anticancer Res., 12 (1992)] using Balb/c nude mice (females, 7 weeks old) in groups of 10 each.
Specifically, an incision was made into the left lower abdominal region of each mouse under Abacin anesthesia, after which a thin section of tumor measuring 5 mm on a side was sutured to the cecum using absorbable surgical sutures to perform orthotopic transplant. The incision was sutured using absorbable surgical sutures and the mice were warmed and promptly awakened from anesthesia.
The test compound was suspended in sterilized distilled water containing 0.5% w/v carboxymethyl cellulose (CMC) and administered orally in a total of 9 doses consisting of one dose per day from days 3 to 7 after the tumor cell transplantation and from days 10 to 13 after the transplantation.
Antitumor activity was assessed according to the following equation to determine the tumor weight inhibitory rate (GI %) on day 14 after the transplantation. GI(%)=(1−Vt′/Vc′)×100 • Vt′: Mean tumor weight on day 14 in the group administered the test compound • Vc′: Mean tumor weight on day 14 in an untreated control group

Assay [5] concerns mouse sarcoma S-180 cells. In words: Antitumor effect against mouse sarcoma S-180 cells. The format is in vivo. Conditions: 1 mg/kg oral once per day for 5 days; tumor volume on day 7; Balb/c nude mice. The procedure:
1×10^6 mouse sarcoma S-180 cells were transplanted subcutaneously in Balb/c nude mice (females, 8 weeks old) in groups of 10 each.
The test compound, Compound No. 2-118, was suspended in sterilized distilled water containing 0.5% w/v carboxymethyl cellulose (CMC) and administered orally once per day for 5 days starting on the day the tumor cells were transplanted.
Antitumor activity was assessed according to the following equation to determine the tumor growth inhibitory rate (GI %) on day 7 after the transplantation. GI(%)=(1−Vt/Vc)×100 • Vt: Mean tumor volume on day 7 in a group administered test compound (*) • Vc: Mean tumor volume on day 7 in an untreated control group (*) • *: Tumor volume is defined as ½×[tumor long axis]×[tumor short axis]^2

Assay [6] concerns mouse colon cancer Colon 26 cells. In words: Life-prolonging activity test in mice bearing Colon 26 cells. The settings on record: Example 7, animals of Examples 3 and 4; present tense, no data. The format is in vivo. The procedure: Observation of the mice used in Example 1 above was continued. The life-prolonging index was determined, based on the number of days each mouse survived, and this value was then used as an indicator of the life-prolonging effects of the test compounds.
It should be noted that, in the case of the group of mice treated with a test compound, oral administration of the respective compound once daily was continued on day 20 after tumor cell transplantation and beyond as well. Life-prolonging index (%)=(St/Sc−1)×100 • St: Median value of survival time (days) of the group of mice treated with a test compound • Sc: Median value of survival time (days) of the control group which were […].
The experiment reported in Example 5 was repeated with the animals used in Example 2. In the case of the group of mice treated with a test compound, oral administration of the respective compound once daily was continued on day 23 after tumor cell transplantation and beyond as well.
The experiment reported in Example 5 is repeated with the animals used in Examples 3 and 4.

For assay [7] the test system is unchanged. In words: Test of anticachexia effects in mice bearing mouse colon cancer Colon 26 cells. The format is in vivo.
From the text: The test animals were CDF1 mice (females, 8 weeks old). They were employed in groups of 10 for each test. 1×10^6 mouse colon cancer Colon 26 cells were transplanted subcutaneously into each animal.
The test compounds were Compounds No. 1-94 and 2-78 as shown above in Tables 1 and 2, respectively, and having the following formulae: […]
Each test compound was suspended in sterilized distilled water containing 0.5% w/v carboxymethyl cellulose (CMC) and administered orally once per day starting on the day of the tumor cell transplantation.
Each test animal was weighed immediately after tumor cell transplantation, and the weight (A g) was recorded. Each animal was then weighed on day 19 after tumor cell transplantation, and the weight (B g) was recorded. The weight gain on day 19 after tumor cell transplantation was calculated as B−A=Δgt for the test animals. The experiment was repeated with two control groups: the first control group (control group 1) was transplanted with the tumor cells but were not treated with any test compound, and the weight gain is reported as Δgc1; the second control group (control group 2) were not transplanted with the tumor cells and were not treated with any test compound, and the weight gain is reported as Δgc2. The body weight recovery rate was determined according to the following formula based on the weight gain on day 19 after tumor cell transplantation, and this value was used as an indicator of the anticachexia effect. Body weight recovery rate (%)=(Δgt−Δgc1)/(Δgc2−Δgc1)×100
(§1) The procedure described in Example 1 was repeated, but using the compound of formula (III) as the test compound, and comparing the weight gain (Δgt) of the test group of animals to which the compound of formula (III) had been administered with a control group (Δgc) into which the tumor cells had been transplanted but to which no anti-tumor compound had been administered. The test animals were female CDF1 mice, 16 weeks old. Also, the weight gain was measured 22 days after tumor transplantation. The average body weight of each group of animals immediately after tumor transplantation was 25 to 26 g.
as §1, with “Example 2” for “Example 1”, “formula (IV)” for “formula (III)”, “mice, 7” for “mice, 16”, “measured 15” for “measured 22”, “was 20” for “was 25”, “to 21” for “to 26”
Test compounds [the compounds of formula (V), (VI), (VII), (VIII), (IX), (X), (XI), (XII), (XIII) and (XIV)] are administered in the same manner as described in Example 2.

Assay [8] has the same test system. The description is as above. Conditions: 15 days after tumor transplantation, female CDF1 mice 7 weeks old, control −3.4. The format is in vivo.
Setting [9] is: LPS 3 μg i.v. before transplantation.

`COc1ccc2c(c1)c(CC(=O)O)c(C)n2C(=O)c1ccc(Cl)cc1` [Indomethacin, reference compound]: in assay [1], the “Inhibition of lung metastasis (in words)” value is on record as “had no such inhibitory activity”. The “LMI (%) lung metastasis inhibitory rate” value in assay [1] (setting [9]) was −1%.
In the case of `CS(=O)(=O)c1ccc(-n2nc(C(F)(F)F)cc2-c2ccc(F)cc2)cc1` [SC-58125], in assay [2], the “Growth inhibitory effects against human colon cancer cell lines (in words)” value is given as “exhibits growth inhibitory effects against certain types of human colon cancer cell lines”.
On to `CS(=O)(=O)c1ccc(C2=C(c3ccc(F)c(F)c3)C(=O)OC2)cc1` [MF-tricyclic], for which, in assay [3], the “Inhibition of occurrence of experimental colonic polyposis (in words)” value is recorded as “inhibit the occurrence of experimental colonic polyposis”.
As to `Cc1cc(-c2ccc(C)c(C)c2)n(-c2ccc(S(N)(=O)=O)cc2)c1` [Compound 2-118, 2-(3,4-dimethylphenyl)-4-methyl-1-(4-sulfamoylphenyl)pyrrole], the entries for the “LMI (%) lung metastasis inhibitory rate” value in assay [1] (setting [9]) and in assay [1] (no LPS administration) were 34% and 64%, respectively. Further, the “GI(%) tumor weight inhibitory rate” value worked out at 12% in assay [4] (0.3 mg/kg oral), 35% in assay [4] (1 mg/kg oral), 45% in assay [4] (3 mg/kg oral) and 59% in assay [4] (10 mg/kg oral). Further, the “GI (%) tumor growth inhibitory rate” value in assay [5] is recorded as 54%.
On to `CS(=O)(=O)Nc1cc2c(cc1Sc1ccc(F)cc1F)C(=O)CC2` [Compound (V), N-[6-(2,4-difluorophenylthio)-1-oxoindan-5-yl]methanesulfonamide], for which the “Inhibition of lung metastasis (in words)” value in assay [1] is on record as “had no such inhibitory activity”. The “LMI (%) lung metastasis inhibitory rate” value in assay [1] (setting [9]) is recorded as 1%. In addition, the “Life-prolongation (in words)” value in assay [6] is on record as “exhibit pronounced life-prolongation”. Besides, the “Inhibition of mouse tumor cachexia and recovery of body weight loss (in words)” value in assay [7] (Example 4, written in present tense, no data) is “inhibit mouse tumor cachexia and recover loss of average of body weight”.
Consider `Cc1ccc(-c2cc(C(F)(F)F)nn2-c2ccc(S(N)(=O)=O)cc2)cc1` [Compound (IV), 4-(5-p-tolyl-3-trifluoromethyl-1H-pyrazol-1-yl)benzenesulfonamide], for which the entries for the “Average Weight Gain (Δg)” value in assay [8] (1 mg/kg oral once per day), in assay [8] (3 mg/kg oral once per day) and in assay [8] (10 mg/kg oral once per day) were -1.2 g, -1.3 g and -0.6 g, respectively. Further, the “Inhibition of lung metastasis (in words)” value in assay [1] is “had no such inhibitory activity”. The “LMI (%) lung metastasis inhibitory rate” value in assay [1] (setting [9]) was determined as 9%. In assay [6], the “Life-prolongation (in words)” value is “exhibit pronounced life-prolongation”. The “Inhibition of mouse tumor cachexia and weight loss (in words)” value in assay [7] (Examples 1-3, 1-10 mg/kg oral) is “inhibited mouse tumor cachexia and reduced weight loss”.
